# Test results taken from US8785434B2, “Antiviral compounds” (Prosetta Antiviral Inc., priority 2010, dated 2014).
# Test system: respiratory viruses (Corona Virus on MRC5 Cells, Influenza Virus A on MDCK Cells, Respiratory Syncytial Virus on HEp2 cells, Adenovirus serotype 5 on A549 …)
# Assay: Respiratory viruses: virus grown in the presence of compound, infectious virus titrated by TCID50
# Type: cell-based
# Settings: qualitative statement; compound tested at 10 μM, 2 μM, 0.4 μM and 0.08 μM
# Procedure: The activities of compounds of the invention were determined for the following viruses using the protocol below:
# Corona Virus on MRC5 Cells
# Influenza Virus A on MDCK Cells
# Respiratory Syncytial Virus on HEp2 cells
# Adenovirus serotype 5 on A549 cells
# Human Rhinovirus on H1Hela Cells
# Herpes Simplex Virus 1 on Vero cells
# Virus was grown in the presence of four dilutions (10 μM, 2 μM, 0.4 μM and 0.08 μM) of the chemical compound tested with two controls using standard methods and materials for the relevant virus. The infected cell extract was collected using known methods, and the infectious virus concentration was determined using standard techniques.
# Each well was titrated by TCID50. Four serial dilutions in quadruplicate required to determine the titer of each well. To assay 36 replicates as directed, one hundred eight (108) 96-well plates will be required. Each drug was tested at four dilutions against one virus will require TCID50 titers of 18 sample wells.
smiles,measurement,value
"Cc1cc(N(C)C)cc2[s+]c3cc(N4CCN(C)CC4)cc(C)c3nc12.[I-] [3-(Dimethylamino)-1,9-dimethyl-7-(4-methylpiperazin-1-yl)phenothiazin-5-ium iodide]",activity across all of the respiratory viruses tested (pan-respiratory anti-viral activity),surprisingly strong activity across all of the respiratory viruses tested
